In assay [1] the target is T1, hY1-receptor (Homo sapiens, UniProt P25929).
T1 sequence (P25929 1-384): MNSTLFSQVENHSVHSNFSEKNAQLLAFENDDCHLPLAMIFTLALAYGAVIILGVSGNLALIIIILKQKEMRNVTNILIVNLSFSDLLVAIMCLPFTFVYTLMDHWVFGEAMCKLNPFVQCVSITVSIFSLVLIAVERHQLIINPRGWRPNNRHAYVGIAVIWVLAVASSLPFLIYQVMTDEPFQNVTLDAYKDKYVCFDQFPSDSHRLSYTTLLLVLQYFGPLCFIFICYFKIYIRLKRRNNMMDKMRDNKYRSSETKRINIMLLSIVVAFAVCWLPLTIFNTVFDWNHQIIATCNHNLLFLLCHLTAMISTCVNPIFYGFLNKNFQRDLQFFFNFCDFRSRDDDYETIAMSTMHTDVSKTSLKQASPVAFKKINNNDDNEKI
Briefly: Radioligand displacement binding on SK-N-MC membranes. Background: Loss of bound radioactivity is the signal in a displacement assay; it reports binding, not function.

Assay [2] has as its target T2, hY5-receptor (Homo sapiens, UniProt Q15761).
T2 sequence (Q15761 1-445): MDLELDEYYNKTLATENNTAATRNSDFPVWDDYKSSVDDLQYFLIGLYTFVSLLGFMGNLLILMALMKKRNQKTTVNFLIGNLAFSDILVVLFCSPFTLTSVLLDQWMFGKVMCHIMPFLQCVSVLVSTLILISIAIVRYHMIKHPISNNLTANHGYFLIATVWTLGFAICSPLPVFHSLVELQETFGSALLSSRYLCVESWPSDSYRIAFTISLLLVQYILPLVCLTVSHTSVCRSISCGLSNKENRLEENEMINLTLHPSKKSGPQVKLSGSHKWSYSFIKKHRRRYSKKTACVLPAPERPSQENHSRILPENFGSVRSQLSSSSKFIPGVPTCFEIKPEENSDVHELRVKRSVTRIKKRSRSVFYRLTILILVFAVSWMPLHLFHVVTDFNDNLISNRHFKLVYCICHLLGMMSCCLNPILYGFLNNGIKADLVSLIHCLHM
Briefly: Radioligand displacement binding on transfected BHK membranes.

Assay [3] has as its target T3, hY2-receptor (Homo sapiens, UniProt P49146).
T3 sequence (P49146 1-381): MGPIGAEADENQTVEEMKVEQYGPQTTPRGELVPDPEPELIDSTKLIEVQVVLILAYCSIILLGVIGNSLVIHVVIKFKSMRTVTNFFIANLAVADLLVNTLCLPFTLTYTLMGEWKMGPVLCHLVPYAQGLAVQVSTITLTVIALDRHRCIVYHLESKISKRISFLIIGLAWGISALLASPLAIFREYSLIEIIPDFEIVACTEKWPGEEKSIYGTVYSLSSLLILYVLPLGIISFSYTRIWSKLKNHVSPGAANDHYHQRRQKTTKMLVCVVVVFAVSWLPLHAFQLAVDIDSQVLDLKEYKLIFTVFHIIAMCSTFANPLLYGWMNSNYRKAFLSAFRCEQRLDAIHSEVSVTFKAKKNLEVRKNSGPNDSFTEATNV
Briefly: Radioligand displacement binding on SMS-KAN membranes.

For assay [4], the target named is hY4-receptor (Homo sapiens, UniProt P50391). Briefly: Radioligand displacement binding on transfected BHK membranes.
Sequence of hY4-receptor (P50391 whole entry): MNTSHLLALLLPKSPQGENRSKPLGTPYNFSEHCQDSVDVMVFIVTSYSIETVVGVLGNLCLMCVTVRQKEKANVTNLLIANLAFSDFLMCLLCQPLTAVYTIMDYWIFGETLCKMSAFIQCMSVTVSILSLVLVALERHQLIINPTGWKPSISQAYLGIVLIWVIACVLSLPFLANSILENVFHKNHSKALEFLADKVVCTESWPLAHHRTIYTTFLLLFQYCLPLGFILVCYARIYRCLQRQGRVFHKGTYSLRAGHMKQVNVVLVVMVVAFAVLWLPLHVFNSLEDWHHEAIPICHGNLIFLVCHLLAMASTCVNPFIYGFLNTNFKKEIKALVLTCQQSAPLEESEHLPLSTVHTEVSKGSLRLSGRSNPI

Where a SMILES comes first, the peptide text is derived from it. [ ]: non-standard residue; d: D form. Ahx = NCCCCCC(=O)O A value given as a limit tells only on which side of the number the result lay.

Consider `CC[C@H](C)[C@H](NC(=O)[C@H](Cc1ccc(O)cc1)NC(=O)[C@H](CCCNC(=N)N)NC(=O)[C@H](CCCNC(=N)N)NC(=O)[C@H](CC(C)C)NC(=O)[C@H](CC(=O)O)NC(=O)[C@H](C)NC(=O)[C@H](C)NC(=O)CCCCCNC(=O)[C@H](CCC(=O)O)NC(=O)[C@H](CC(C)C)NC(=O)[C@@H]1CCCN1C(=O)[C@H](C)N)C(=O)N[C@@H](CC(N)=O)C(=O)N[C@@H](CCSC)C(=O)N[C@@H](CC(C)C)C(=O)N[C@H](C(=O)N[C@@H](CCCNC(=N)N)C(=O)N1CCC[C@H]1C(=O)N[C@@H](CCCNC(=N)N)C(=O)N[C@@H](Cc1ccc(O)cc1)C(N)=O)[C@@H](C)O` [[Ahx^5-20]-hPP] (H-APLE[Ahx]AADLRRYINMLTRPRY-NH2), for which the IC50 was greater than 1500 nM in assay [1], greater than 7000 nM in assay [2], greater than 1000 nM in assay [3] and 216 nM in assay [4].

As for `CC[C@H](C)[C@H](NC(=O)[C@H](Cc1ccc(O)cc1)NC(=O)[C@H](Cc1c[nH]cn1)NC(=O)[C@H](CCCNC(=N)N)NC(=O)CCCCCNC(=O)[C@H](CCCCN)NC(=O)[C@H](CO)NC(=O)[C@@H]1CCCN1C(=O)[C@@H](N)Cc1ccc(O)cc1)C(=O)N[C@@H](CC(N)=O)C(=O)N[C@@H](CC(C)C)C(=O)N[C@H](C(=O)N[C@H](C(=O)N[C@@H](CCCNC(=N)N)C(=O)N1CCC[C@H]1C(=O)N[C@@H](CCCNC(=N)N)C(=O)N[C@@H](Cc1ccc(O)cc1)C(N)=O)[C@@H](C)O)[C@@H](C)CC` [[Ahx^5-24, ^P34]-NPY] (H-YPSK[Ahx]RHYINLITRPRY-NH2), the half-maximal inhibitory concentration (IC50) was greater than 10000 nM in assay [2] and 514 nM in assay [4].

Turning to `CC[C@H](C)[C@H](NC(=O)[C@H](Cc1ccc(O)cc1)NC(=O)[C@H](Cc1cnc[nH]1)NC(=O)[C@H](CCCNC(=N)N)NC(=O)CCCCCNC(=O)[C@H](CCCCN)NC(=O)[C@H](CO)NC(=O)[C@@H]1CCCN1C(=O)[C@@H](N)Cc1ccc(O)cc1)C(=O)N[C@@H](CC(N)=O)C(=O)N[C@@H](CC(C)C)C(=O)N[C@H](C(=O)N[C@H](C(=O)N[C@@H](CCCNC(=N)N)C(=O)N[C@@H](CCC(N)=O)C(=O)N[C@@H](CCCNC(=N)N)C(=O)N[C@@H](Cc1ccc(O)cc1)C(N)=O)[C@@H](C)O)[C@@H](C)CC` [[Ahx^5-24]-NPY] (H-YPSK[Ahx]RHYINLITRQRY-NH2), the 50% inhibitory concentration (IC50) in assay [1] is greater than 1000 nM; in assay [2], 795 nM; in assay [3], 1.4 nM; in assay [4] it was 600 nM.

In the case of `CC[C@H](C)[C@H](NC(=O)[C@H](Cc1ccc(O)cc1)NC(=O)[C@H](CCCNC(=N)N)NC(=O)[C@H](CCCNC(=N)N)NC(=O)CCCCCNC(=O)[C@H](CCC(=O)O)NC(=O)[C@H](CC(C)C)NC(=O)[C@@H]1CCCN1C(=O)[C@H](C)N)C(=O)N[C@@H](CC(N)=O)C(=O)N[C@@H](CCSC)C(=O)N[C@@H](CC(C)C)C(=O)N[C@H](C(=O)N[C@@H](CCCNC(=N)N)C(=O)N1CCC[C@H]1C(=O)N[C@@H](CCCNC(=N)N)C(=O)N[C@@H](Cc1ccc(O)cc1)C(N)=O)[C@@H](C)O` [[Ahx^5-24]-hPP] (H-APLE[Ahx]RRYINMLTRPRY-NH2), the IC50 in assay [1] is greater than 500 nM; in assay [2], greater than 1000 nM; in assay [3] it was greater than 1000 nM; in assay [4], 144 nM.

For `CC[C@H](C)[C@H](NC(=O)[C@H](Cc1ccc(O)cc1)NC(=O)[C@H](Cc1c[nH]cn1)NC(=O)[C@H](CCCNC(=N)N)NC(=O)[C@H](CC(C)C)NC(=O)[C@H](C)NC(=O)[C@H](CO)NC(=O)[C@H](Cc1ccc(O)cc1)NC(=O)CCCCCNC(=O)[C@H](CC(N)=O)NC(=O)[C@H](CC(=O)O)NC(=O)[C@@H]1CCCN1C(=O)[C@H](CCCCN)NC(=O)[C@H](CO)NC(=O)[C@@H]1CCCN1C(=O)[C@@H](N)Cc1ccc(O)cc1)C(=O)N[C@@H](CC(N)=O)C(=O)N[C@@H](CC(C)C)C(=O)N[C@H](C(=O)N[C@H](C(=O)N[C@@H](CCCNC(=N)N)C(=O)N[C@@H](CCC(N)=O)C(=O)N[C@@H](CCCNC(=N)N)C(=O)N[C@@H](Cc1ccc(O)cc1)C(N)=O)[C@@H](C)O)[C@@H](C)CC` [[Ahx^8-20]-NPY] (H-YPSKPDN[Ahx]YSALRHYINLITRQRY-NH2), the 50% inhibitory concentration (IC50) worked out at 31 nM in assay [2] and 67 nM in assay [4].

In general, IC50 refers to the concentration at which inhibition is half-maximal. A lower IC50 goes with inhibition by little substance.
